For assay [1], the system named is Glyceraldehyde 3-phosphate dehydrogenase (GAPDH) of Plasmodium falciparum. Set-up: method as in Campanale et al. 2003. The conditions noted are these: ref Campanale et al. 2003; cited from earlier work.
Assay [2] concerns the target T1, recombinant PcGAPDH (rPcGAPDH) (Phanerodontia chrysosporium, UniProt Q01982).
T1 construct: 6xHis-tag (pET-30) (cleaved yes); made in house; host or cells: E. coli BL21(DE3)pLysS
The experiment in a line: GAPDH assay and steady-state kinetic analysis. It counts as biochemical, Phanerochaete chrysosporium. The note with it: rPcGAPDH. The procedure:
GAPDH assay was performed as previously described (Campanale et al. [2003]). For steady-state kinetic analysis, the reaction mixture (1 ml) contained 40 mM phosphate (pH 7.6), 5.2 μg recombinant PcGAPDH (rPcGAPDH), 40 mM triethanolamine, 5 mM NAD^+, and 0.6–2 mM glyceraldehyde 3-phosphate (GAP3). Reactions were monitored by the increase in absorbance at 340 nm (ε 6220 M^–1 cm^–1) for 1 min, and initial velocities were determined. Inhibitory experiments were done in the presence of 0–2.5 μM hemin. To examine the effect of hemin on GAPDH kinetics, PcGAPDH was incubated with either buffer (control) or hemin for 5 min prior to initiating the reaction. Kinetic parameters were determined from Lineweaver–Burk plots, and Ki values were determined from the secondary plot of each slope of the Lineweaver–Burk plots. Immediately prior to use, hemin was dissolved at 10 mM in 0.1 M NaOH and diluted with 40 mM Tris–HCl (pH 7.5).
Fig. 2 Heterologous expression of PcGAPDH and inhibitory effect of hemin on GAPDH reaction. A M, molecular weight marker; lane 1, rPcGAPDH-His-tag; lane 2, His-tag-cleaved rPcGAPDH. B Reaction mixtures containing 2.5 nM rPcGAPDH, 40 mM phosphate (pH 7.6), 40 mM triethanolamine, 5 mM NAD^+, and 0.6–2 mM GAP3. […] Inset: secondary plots of each slope of Lineweaver–Burk plots against the concentration of hemin for determining inhibition constants. C Reaction mixtures containing 2.5 nM rPcGAPDH, 40 mM phosphate (pH 7.6), 40 mM triethanolamine, 5 mM NAD^+, and 0.6 mM GAP3. Reactions were started by adding substrates followed by 5-min incubation with either buffer or 1 μM inhibitor (hemin or protoporphyrin IX, PPIX). […] All experiments were performed in triplicate. Bars indicated as mean values ± standard deviation (error bars)

A further assay concerns the target T2, PcGAPDH (Phanerodontia chrysosporium, UniProt Q01982).
T2 construct: 6xHis-tag (pET-30) (cleaved yes); made in house; host or cells: E. coli BL21(DE3)pLysS
The experiment in a line: Peroxidative activity of GAPDH–hemin complex (TMB oxidation). It counts as biochemical, Phanerochaete chrysosporium. The conditions noted are these: on binding PcGAPDH in vitro, 1:1 or 1:2 PcGAPDH:hemin, 100 μM H2O2. The procedure: Peroxidative activity of the PcGAPDH–hemin complex was investigated by using 3, 3′, 5, 5′-tetramethylbenzidine (TMB) as oxidation substrate. Before the assay, 100 μM PcGAPDH was incubated with hemin at 1:1 or 1:2 stoichiometry for 30 min at 4 °C in the dark. Reaction mixtures (1 ml) contained 40 mM Tris–HCl (pH 7.5), 125 μM TMB, 100 μM hydrogen peroxide, and 1 μM PcGAPDH with hemin at 1:1 or 1:2 stoichiometry. As a control, 1 or 2 μM hemin without PcGAPDH was used. The reaction was monitored at 655 nm upon the formation of benzidine cation radical for 1 min.
Fig. 6 Peroxidative activity of GAPDH–hemin complex. Peroxidative activity of GAPDH–hemin complex was investigated by using TMB as an oxidation substrate. Reaction mixtures contained 40 mM Tris/HCl (pH 7.5), 125 μM TMB, 100 μM hydrogen peroxide, 1 μM PcGAPDH with hemin at 1:1 (a) or 1:2 (b) stoichiometry. As a control, 1 (c) or 2 (d) μM hemin without PcGAPDH was used. The reaction was monitored at 655 nm for 1 min

A further assay addresses T3, pig CS (Sus scrofa, UniProt P00889).
T3 sequence (P00889 28-464): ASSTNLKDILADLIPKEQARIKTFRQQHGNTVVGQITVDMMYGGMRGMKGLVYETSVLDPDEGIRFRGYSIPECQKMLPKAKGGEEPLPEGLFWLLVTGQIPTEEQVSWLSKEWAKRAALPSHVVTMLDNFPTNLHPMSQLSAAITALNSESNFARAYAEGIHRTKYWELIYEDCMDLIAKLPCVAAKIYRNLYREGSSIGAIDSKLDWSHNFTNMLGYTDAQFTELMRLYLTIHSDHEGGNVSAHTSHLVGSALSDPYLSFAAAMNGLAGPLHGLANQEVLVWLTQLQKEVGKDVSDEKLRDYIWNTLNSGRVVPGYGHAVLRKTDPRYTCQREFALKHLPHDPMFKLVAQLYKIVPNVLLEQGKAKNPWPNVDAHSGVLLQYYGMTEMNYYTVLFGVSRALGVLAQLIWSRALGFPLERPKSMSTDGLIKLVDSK
The experiment in a line: Inhibitory effect of hemin on pig CS (SsCS) reaction. It counts as biochemical. The conditions noted are these: 0–5.7 µM hemin, incubated 0 or 60 min at 4 °C (Supplemental Fig. S2). An excerpt: One heme-responsive-motif (HRM) was found in PcCS, which could be a possible heme-binding site (Lathrop and Timko [1993]; Zhang and Guarente [1995]; Ishikawa et al. [2005]; Yamanaka et al. [2003]). From the alignment analysis, only certain fungi contain HRM (CP motif) in their CSs (Supplemental Fig. S1). No mammalian CS contains HRM (Supplemental Fig. S1). […] Furthermore, the His residue corresponding to His^347 in PcCS was conserved in either mammalian or fungal CSs. Combining all the data, the heme-binding site is concluded to be His^347 of PcCS.
Concentration of hemin (nM)
Figure S2 Inhibitory effect of hemin on SsCS reaction. Reaction mixtures containing
1.5 nM SsCS, 40 mM Tris/HCl (pH 8.5) and 0, 0.5, 1.2 and 5.7 µM hemin were incubated […]

T1 sequence (Q01982 whole entry): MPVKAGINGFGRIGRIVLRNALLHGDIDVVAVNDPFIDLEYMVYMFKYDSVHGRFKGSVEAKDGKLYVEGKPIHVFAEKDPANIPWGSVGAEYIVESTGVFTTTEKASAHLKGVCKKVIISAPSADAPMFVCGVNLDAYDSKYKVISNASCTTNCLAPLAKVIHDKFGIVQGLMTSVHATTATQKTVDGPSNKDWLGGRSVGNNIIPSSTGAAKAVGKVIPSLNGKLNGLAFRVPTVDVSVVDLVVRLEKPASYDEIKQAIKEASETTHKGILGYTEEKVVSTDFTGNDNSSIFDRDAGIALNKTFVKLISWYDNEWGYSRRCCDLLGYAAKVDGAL
T2 sequence (Q01982 whole entry): as above

Usually Ki stands for a dissociation constant, usually derived from enzyme kinetics or from competition with a known ligand. Consider `C=CC1=C(C)c2cc3[nH]c(cc4nc(cc5[nH]c(cc1n2)c(C)c5CCC(=O)O)C(CCC(=O)O)=C4C)c(C)c3C=C.[Fe+3]` [hemin], for which the Ki in assay [1] was 0.2 µM; in assay [2] (pH 7.6, 5 mM NAD+, 0.6–2 mM GAP3, 0–2.5 μM hemin, read-out: Ki (inhibition constant from secondary plot)), 1 µM. Also, the “inhibitory pattern (steady-state analysis)” value in assay [2] (GAP3 as variable substrate) was “mixed type”. For the same molecule, the “TMB-oxidizing ability of heme” value on PcGAPDH is reported as “suppressed”. Further, the “effect on pig CS activity” value at pig CS is “inhibited”.

These data come from article PMC10771590, “Pathway crosstalk between the central metabolic and heme biosynthetic pathways in Phanerochaete chrysosporium” (Applied Microbiology and Biotechnology, 2024).
